Patent US20120322726A1, “THERAPEUTIC AGENT FOR EATING DISORDERS” (MORINAGA MILK INDUSTRY CO., LTD., priority 2010, published 2012)

Tests used:
KK-Ay mice [1] = assay: Test Example 3: amount of livestock feed taken by hyperphagia model mice; format: in vivo
Description: The object of this test was to confirm that the casein hydrolysate according to the present invention has a therapeutic effect against the hyperphagia.
The product according to the present invention: The casein hydrolysate according to the present invention, prepared by the method described in EXAMPLE 1, was diluted with the distilled water so that the concentration of the hydrolysate would be 5 mg/ml.
The precipitate fraction: Sample 2 in the Test Example 1 was diluted with the distilled water into 5 mg/ml.
Whole casein hydrolysate: The rennet casein (Fonterra Co-operative Group Limited, protein content 80%) used in EXAMPLE 1 was digested with pepsin in the same way as in EXAMPLE 1, and then, without centrifuging, diluted with the distilled water for injection so that the concentration of the hydrolysate would be 5 mg/ml.
GMP (glycol-macropeptide): A commercially available GMP (MG Nutritionals) was diluted with the distilled water for injection so that the concentration of GMP would be 5 mg/ml. […]
After pre-feeding with said livestock feed for 10 days, test animals were divided into 8 groups each including 8 animals so that they would have the nearly equal body weight and take the nearly equal amount of livestock feed. […] The amount of livestock feed taken by the animal was determined once a week. […]

KK-Ay mice [2] = assay: Test Example 4: blood glucose level of hyperphagia model mice; format: in vivo
Description: The object of this test was to confirm that the casein hydrolysate according to the present invention has an effect of decreasing the blood glucose level of the patient with hyperphagia.
The same one as in EXAMPLE 3 was used.
A commercially available livestock feed containing no protein from milk (Nihon Nosan, trade name: MR Stock) was used. As drinking water, tap water (city water) was used.
As animal model for hyperphagia, KK-Ay mice (male, 5 weeks old, CLEA Japan, Inc.) were used.
After pre-feeding with said livestock feed for 10 days, test animals were divided into 8 groups each including 8 animals so that they would have the nearly equal body weight and take the nearly equal amount of livestock feed. The animals of each group could take the livestock feed and water freely. During 5 days of one week, 0.5 ml of the sample was administered to each animal per day using a sonde. The test was performed for 5 weeks. The blood glucose level was determined once a week, using a glucose kit for self checking (Johnson & Johnson).
Relative blood glucose level is an average blood glucose level of each group when the average blood glucose level of the control group is considered 1.

[3] = 5 mg/ml, 0.5 ml per day, 5 weeks after starting of administration

κ-casein: commercially available κ-casein (Sigma)
change of amount of livestock feed taken compared to the control (KK-Ay mice [1]; [3]): wasn't a significant effect | Relative amount of livestock feed ingested 5 weeks later (KK-Ay mice [1]; 0.5 ml of 5 mg/ml sample per day by sonde, 5 days of one week, 5 weeks, control group = 1, * p < 0.05): 0.990 | change of blood glucose level compared to the control (KK-Ay mice [2]; [3]): wasn't a significant effect | Relative blood glucose level 5 weeks later (KK-Ay mice [2]; Table 3 (text: relative blood glucose level), 0.5 ml of 5 mg/ml sample per day, 5 days of one week, 5 weeks, control group = 1, * p < 0.05): 0.934
